SMILES strings stand for the structures.

We go through two molecules from patent US9663451B2, “Forms of co-crystals of agomelatine and p toluenesulphonic acid, a process for their preparation and pharmaceutical compositions containing them” (LES LABORATOIRES SERVIER, priority 2013, dated 2017).

Data set [1] can be described thus: Solubility by HPLC (external standard method) compared with agomelatine of form II. The format is physicochemical. The protocol: By means of an external standard method, the compounds of Examples 1 and 2 are tested by HPLC and compared with agomelatine of form II. The results are presented in Table 4 in the form of % increase in solubility relative to the solubility of agomelatine of form II: […]

Data set [2] is described as follows: Stability of samples in incubators, determined by HPLC. The format is physicochemical. As to conditions: 30 days.

As for `COc1ccc2cccc(CCNC(C)=O)c2c1.Cc1ccc(S(=O)(=O)O)cc1` [Compound of Example 2, Agomelatine/p-Toluenesulphonic Acid (1/1) Co-Crystal], in data set [1], the “Solubility (increase versus agomelatine form II) in 0.1N HCl” value was “+45%”, the “Solubility (increase versus agomelatine form II) in a buffer pH 6.8” value is on record as “+60%” and the “Solubility (increase versus agomelatine form II) in water” value is listed as “+35%”. The Stability entry in data set [2] (70° C., closed bottle) is on record as “Stable”.

`COc1ccc2cccc(CCNC(C)=O)c2c1.Cc1ccc(S(=O)(=O)O)cc1.O` [Compound of Example 1, Agomelatine/p-Toluenesulphonic Acid (1/1) Monohydrate Co-Crystal]: in data set [1], the “Solubility (increase versus agomelatine form II) in 0.1N HCl” value is on record as “+50%”. Also, the “Solubility (increase versus agomelatine form II) in a buffer pH 6.8” value in data set [1] was “+49%”. Also, in data set [1], the “Solubility (increase versus agomelatine form II) in water” value is listed as “+41%”. Moreover, the Stability entry is given as “Stable” in data set [2] (25° C., 60% RH, open bottle); “Stable” in data set [2] (40° C., 75% RH, open bottle); “Stable” in data set [2] (50° C., closed bottle); “Stable” in data set [2] (70° C., closed bottle).
